Source: the NIST ThermoML archive (doi:10.1021/je049925a)

Details: Liquid; for speed of sound: Sing-around technique in a fixed-path interferometer; for vapor or sublimation pressure: Closed cell (Static) method

CC(F)F [1,1-difluoroethane]
Details	speed of sound [m/s]
243.15 K, 138 kPa	920.2
243.15 K, 442 kPa	922.3
243.15 K, 595 kPa	923.2
243.15 K, 1302 kPa	927.8
243.15 K, 1815 kPa	931
243.15 K, 2160 kPa	933.1
243.15 K, 2762 kPa	936.9
243.15 K, 3217 kPa	939.9
243.15 K, 3854 kPa	943.7
243.15 K, 4428 kPa	947.1
243.15 K, 5359 kPa	952.7
243.15 K, 6355 kPa	958.6
243.15 K, 7657 kPa	966.2
243.15 K, 8846 kPa	973.1
243.15 K, 10231 kPa	981
243.15 K, 11681 kPa	989
243.15 K, 13279 kPa	997.6
243.15 K, 14943 kPa	1005.5
243.15 K, 16723 kPa	1015.9
243.15 K, 17442 kPa	1019.5
243.15 K, 18731 kPa	1026.3
243.15 K, 20194 kPa	1033.7
243.15 K, 22819 kPa	1046.4
243.15 K, 25117 kPa	1058.6
243.15 K, 27154 kPa	1068.9
243.15 K, 30242 kPa	1084.3
263.15 K, 407 kPa	822.3
263.15 K, 581 kPa	823.3
263.15 K, 759 kPa	824.6
263.15 K, 928 kPa	825.5
263.15 K, 1550 kPa	831.3
263.15 K, 2228 kPa	835.9
263.15 K, 2461 kPa	837.6
263.15 K, 3130 kPa	842.9
263.15 K, 3429 kPa	844.7
263.15 K, 3914 kPa	848.6
263.15 K, 5038 kPa	856.2
263.15 K, 5789 kPa	861.4
263.15 K, 6568 kPa	866.7
263.15 K, 7201 kPa	871
263.15 K, 7967 kPa	876.3
263.15 K, 8899 kPa	881.9
263.15 K, 9893 kPa	888.5
263.15 K, 11531 kPa	898.7
263.15 K, 13616 kPa	912
263.15 K, 15466 kPa	922.7
263.15 K, 17421 kPa	934.4
263.15 K, 18552 kPa	941
263.15 K, 19791 kPa	947.4
263.15 K, 21881 kPa	959.5
263.15 K, 25895 kPa	980.9
263.15 K, 27572 kPa	989.5
263.15 K, 29409 kPa	998.8
283.15 K, 547 kPa	722.7
283.15 K, 750 kPa	724.6
283.15 K, 1038 kPa	727.4
283.15 K, 1402 kPa	731.2
283.15 K, 1697 kPa	733.8
283.15 K, 2322 kPa	739.5
283.15 K, 2793 kPa	743.7
283.15 K, 3256 kPa	747.8
283.15 K, 3975 kPa	754
283.15 K, 4329 kPa	756.9
283.15 K, 5020 kPa	762.5
283.15 K, 6373 kPa	773.5
283.15 K, 7420 kPa	781.9
283.15 K, 8061 kPa	787
283.15 K, 9151 kPa	795.4
283.15 K, 10246 kPa	803.6
283.15 K, 11356 kPa	811.6
283.15 K, 13100 kPa	824
283.15 K, 14824 kPa	835.9
283.15 K, 16147 kPa	844.8
283.15 K, 18020 kPa	857
283.15 K, 19869 kPa	868.3
283.15 K, 22681 kPa	885.6
283.15 K, 24751 kPa	897.6
283.15 K, 27174 kPa	911.6
283.15 K, 29569 kPa	925.1
298.15 K, 660 kPa	648
298.15 K, 1153 kPa	653.4
298.15 K, 1656 kPa	658.8
298.15 K, 2142 kPa	663.6
298.15 K, 3104 kPa	674.1
298.15 K, 3609 kPa	679.2
298.15 K, 4115 kPa	684.3
298.15 K, 5023 kPa	692.9
298.15 K, 5998 kPa	702.2
298.15 K, 6939 kPa	710.9
298.15 K, 8037 kPa	720.6
298.15 K, 9271 kPa	731.2
298.15 K, 10321 kPa	740.1
298.15 K, 11735 kPa	751.5
298.15 K, 13300 kPa	763.9
298.15 K, 14789 kPa	775.3
298.15 K, 16388 kPa	787.1
298.15 K, 18041 kPa	799
298.15 K, 19521 kPa	809.3
298.15 K, 20530 kPa	816.2
298.15 K, 22781 kPa	831.1
298.15 K, 24289 kPa	840.6
298.15 K, 26870 kPa	856.4
298.15 K, 30717 kPa	878.8
313.15 K, 1222 kPa	575.1
313.15 K, 1721 kPa	581.7
313.15 K, 2288 kPa	589.2
313.15 K, 2776 kPa	595.3
313.15 K, 3587 kPa	605.3
313.15 K, 4184 kPa	612.4
313.15 K, 4942 kPa	621
313.15 K, 6282 kPa	635.8
313.15 K, 7106 kPa	644.5
313.15 K, 8134 kPa	655.1
313.15 K, 9180 kPa	665.6
313.15 K, 9927 kPa	672.7
313.15 K, 11390 kPa	686.3
313.15 K, 12765 kPa	698.6
313.15 K, 15195 kPa	719.2
313.15 K, 16072 kPa	726.4
313.15 K, 17264 kPa	736
313.15 K, 19072 kPa	749.8
313.15 K, 21055 kPa	764.7
313.15 K, 22659 kPa	776.2
313.15 K, 25122 kPa	793.3
313.15 K, 27530 kPa	808.2
313.15 K, 29895 kPa	822.3
333.15 K, 2129 kPa	478.7
333.15 K, 2606 kPa	487.2
333.15 K, 3860 kPa	507.8
333.15 K, 4725 kPa	520.6
333.15 K, 5932 kPa	538
333.15 K, 7142 kPa	552.1
333.15 K, 8008 kPa	565.1
333.15 K, 9016 kPa	577.2
333.15 K, 10079 kPa	589.7
333.15 K, 11228 kPa	602.3
333.15 K, 13279 kPa	623.8
333.15 K, 15330 kPa	643.8
333.15 K, 17092 kPa	660.1
333.15 K, 18393 kPa	671.6
333.15 K, 19875 kPa	684.3
333.15 K, 22222 kPa	702.8
333.15 K, 24752 kPa	723.7
333.15 K, 24836 kPa	723.7
333.15 K, 26902 kPa	738.8
333.15 K, 29698 kPa	758.6

Details	vapor or sublimation pressure [kPa]
243.15 K	73
263.15 K	179
283.15 K	372
298.15 K	595
313.15 K	907
333.15 K	1499
